Assay results: the NIST ThermoML archive (doi:10.1016/j.tca.2014.07.001)

Settings: Liquid; for mass density: 101.33 kPa, Vibrating tube method; for vapor or sublimation pressure: Rate of evaporation

Cc1cc(OC(=O)C(C)(C)C)cc(OC(=O)C(C)(C)C)c1
Settings | mass density [kg/m3] | vapor or sublimation pressure [kPa]
323.1 K | 977.806 | –
333.1 K | 969.344 | –
343.1 K | 960.889 | –
353.1 K | 952.427 | –
363.1 K | 943.951 | –
456 K | – | 1.816
460 K | – | 2.127
464 K | – | 2.485
468 K | – | 2.894
472 K | – | 3.363
476 K | – | 3.898
480 K | – | 4.506
484 K | – | 5.197
488 K | – | 5.98
492 K | – | 6.865
496 K | – | 7.864
500 K | – | 8.989
504 K | – | 10.25
508 K | – | 11.67
512 K | – | 13.26
516 K | – | 15.03
520 K | – | 17
524 K | – | 19.2
528 K | – | 21.65
532 K | – | 24.36
536 K | – | 26.58

CCCCOc1cc(C)cc(OCCCC)c1 [1,3-dibutoxy-5-methylbenzene]
Settings | mass density [kg/m3] | vapor or sublimation pressure [kPa]
278.2 K | 955.338 | –
298.1 K | 938.896 | –
318.1 K | 922.519 | –
338.1 K | 906 | –
358.1 K | 889.4 | –
421 K | – | 1.076
425 K | – | 1.286
429 K | – | 1.533
433 K | – | 1.821
437 K | – | 2.156
441 K | – | 2.545
445 K | – | 2.995
449 K | – | 3.515
453 K | – | 4.114
457 K | – | 4.801
461 K | – | 5.588
465 K | – | 6.487
469 K | – | 7.512
473 K | – | 8.677
477 K | – | 9.998
481 K | – | 11.49
485 K | – | 13.18
489 K | – | 15.09
493 K | – | 17.23
497 K | – | 19.63
501 K | – | 22.32
505 K | – | 25.32
509 K | – | 28.68
513 K | – | 32.42
517 K | – | 34.44

Cc1cc(OCC(C)C)cc(OCC(C)C)c1 [1-methyl-3,5-bis(2-methylpropoxy)benzene]
Settings | mass density [kg/m3] | vapor or sublimation pressure [kPa]
328.2 K | 908.941 | –
338.2 K | 901.02 | –
348.2 K | 893.071 | –
358.2 K | 885.087 | –
446 K | – | 2.406
449 K | – | 2.737
452 K | – | 3.108
455 K | – | 3.524
458 K | – | 3.989
461 K | – | 4.508
464 K | – | 5.086
467 K | – | 5.729
470 K | – | 6.445
473 K | – | 7.238
476 K | – | 8.118
479 K | – | 9.091
482 K | – | 10.17
485 K | – | 11.35
488 K | – | 12.66
491 K | – | 14.1
494 K | – | 15.69
497 K | – | 17.43
500 K | – | 19.33
503 K | – | 21.42
506 K | – | 23.71
509 K | – | 26.21

Cc1cc(OCCc2ccccc2)cc(OCCc2ccccc2)c1 [1-methyl-3,5-bis(2-phenylethoxy)benzene]
Settings | mass density [kg/m3] | vapor or sublimation pressure [kPa]
283.2 K | 921.532 | –
303.2 K | 907.265 | –
323.2 K | 893.041 | –
343.2 K | 878.854 | –
363.2 K | 864.445 | –
507 K | – | 1.602
510 K | – | 1.802
513 K | – | 2.024
516 K | – | 2.271
519 K | – | 2.543
522 K | – | 2.845
525 K | – | 3.179
528 K | – | 3.548
531 K | – | 3.954
534 K | – | 4.401
537 K | – | 4.893
540 K | – | 5.434
543 K | – | 6.027
546 K | – | 6.678
549 K | – | 7.39
552 K | – | 8.17
555 K | – | 9.022
558 K | – | 9.952
561 K | – | 10.97
564 K | – | 12.07
567 K | – | 13.28
570 K | – | 14.59
573 K | – | 15.52

Cc1cc(OC(C)C)cc(OC(C)C)c1 [1-methyl-3,5-bis(propan-2-yloxy)benzene]
Settings | mass density [kg/m3] | vapor or sublimation pressure [kPa]
283.2 K | 963.279 | –
303.2 K | 945.753 | –
323.2 K | 928.213 | –
343.2 K | 910.635 | –
363.2 K | 892.968 | –
419 K | – | 2.389
422 K | – | 2.713
425 K | – | 3.074
428 K | – | 3.478
431 K | – | 3.928
434 K | – | 4.428
437 K | – | 4.984
440 K | – | 5.601
443 K | – | 6.285
446 K | – | 7.041
449 K | – | 7.876
452 K | – | 8.796
455 K | – | 9.811
458 K | – | 10.93
461 K | – | 12.15
464 K | – | 13.49
467 K | – | 14.97
470 K | – | 16.58
473 K | – | 18.34
476 K | – | 20.26
479 K | – | 22.36

CCCCC(=O)Oc1cc(C)cc(OC(=O)CCCC)c1 [3-methyl-5-(pentanoyloxy)phenyl pentanoate]
Settings | mass density [kg/m3] | vapor or sublimation pressure [kPa]
278.2 K | 1031.85 | –
298.1 K | 1015.28 | –
318.1 K | 998.841 | –
338.1 K | 982.449 | –
358.1 K | 966.043 | –
464 K | – | 0.708
468 K | – | 0.844
472 K | – | 1.004
476 K | – | 1.19
480 K | – | 1.406
484 K | – | 1.657
488 K | – | 1.948
492 K | – | 2.284
496 K | – | 2.671
500 K | – | 3.116
504 K | – | 3.626
508 K | – | 4.209
512 K | – | 4.875
516 K | – | 5.633
520 K | – | 6.495
524 K | – | 7.472
528 K | – | 8.579
532 K | – | 9.828
536 K | – | 11.24
540 K | – | 12.82
544 K | – | 14.6
548 K | – | 16.6
552 K | – | 18.83
556 K | – | 21.33
560 K | – | 24.11
